Columns and labels:
[1] = system: calcified plaque in postmortem diseased femoral arteries; assay: IVUS analysis of human cadaveric arterial samples (echogenicity)
Description: The following equipment was used in this Example: IVUS, Boston Scientific iLab 120 CARTR, UPN Product number: H749iLab120CARTRO, manufactured April 2011, Serial number 7347. The software is iReview version 1.0. The catheter is Boston Scientific Atlantis SR Pro 40 MHz Coronary Imaging Catheter, catalog number 38942, 3.6 F×135 cm.
IVUS images have identified different types of plaque, e.g., soft, mixed, hard, and calcified. M. Sahara, et al., “Soft Plaque Detected on Intravascular Ultrasound Is the Strongest Predictor of In-Stent Restenosis: an Intravascular Ultrasound Study,” European Heart Journal, 25: 2026-2033 (2004), the disclosure of which is hereby incorporated by reference. For example, calcified plaque has been identified by two characteristics, i.e., a high echogenicity resulting in an intense reflection (bright white) and the presence of an acoustic shadow behind the plaque because the ultrasound cannot penetrate the calcified plaque.
Postmortem diseased femoral arteries (both left and right) were received approximately 16 hours after the time of death. The samples were inspected to assess the level of disease. When palpated both the right and left arteries were extremely hard and rigid throughout the entire length of both arteries. Occlusion was visually judged as ranging from 20-60%. The artery was placed in PBS and IVUS pullback (0.5 mm/s) was completed three times (PRE 1, PRE 2, PRE 3). […] The artery was thoroughly rinsed with PBS to remove any excess plaque-softening compound. The artery was then placed into PBS and an IVUS pullback was conducted three times (SOAK 1, SOAK 2, SOAK 3). A balloon angioplasty catheter was placed into the artery and inflated to the reference vessel diameter (RVD) without any overstrech. A radially emitting light fiber was inserted into the catheter and centered in the angioplasty balloon. The composition was activated by exposure to blue light (447 nm) at an intensity of 1800 mW for 60 seconds. The balloon catheter was removed and an IVUS pullback was completed three times (POST 1, POST 2, POST 3).
Each frame of each pullback (PRE 1, PRE 2, PRE 3, SOAK 1, SOAK 2, SOAK 3, POST 1, POST 2, POST 3) was analyzed and calcified plaque was identified including the acoustic shadow behind each area of plaque. FIGS. 15a and 15b are the IVUS images from frame 921 of PRE 1 and illustrate the existence of plaque. For each frame, the intensity of each gray pixel (based upon 255 shades of gray, “AVI” format and 521×521 pixels) within the arterial wall was determined. FIG. 17 is a histogram illustrating the gray scale of frame 921, PRE 1, wherein the y-axis is the pixel count and the x-axis is the pixel intensity. So, for example, there were a lot of pixels having a pixel intensity of 16 and very few pixels having a pixel intensity of 168. It is known that the relative amount of hypo-echogenic and hyper-echogenic reflections can be used to measure the change in calcified plaque. See S. Brugaletta, et al., “Serial In Vivo Intravascular Ultrasound-Based Echogenicity Changes of Everolimus-eluting Bioresorbable Vascular Scaffold During the First 12 Months After Implantation,” JACC: Cardiovascular Interventions, 4 (12):1281-1289 (2011), the disclosure of which is hereby incorporated by reference. For example, it is known that pixels with a gray scale intensity of 92 or lower were judged to be hypo-echogenic and those with a gray scale intensity of 93 or higher were judged to be hyper-echogenic. To be clear, in the instant Example, the mean gray value of the adventitia was used to classify tissue components as either hypo- or hyper-echogenic. One of ordinary skill in the art could easily determine the gray scale threshold for any data set in order to classify tissue components as either hypo- or hyper-echogenic.
The pixel intensity of the entire IVUS pullback data was analyzed as a single data set. […]

[2] = Linker solution hydrolysis (release of drug mimic, HPLC, first order rate constant); assay type: physicochemical; details: 37° C.
Procedure: The hydrolysis rate of a linker was studied without attachment to a naphthalimide compound or tissue attachment under physiological conditions. The work verified the expected hydrolysis rate and when combined with ex vivo data allows the influence of the tissue on the hydrolysis rate to be determined.
A 20 mg/mL stock solution of a drug mimic, such as an FITC derivative, was prepared by weighing out approximately 20 mg of material and diluting with 1 mL of H20. The release rate of each compound, the free mimic from its respective linker, was studied in duplicate as a function of time and pH (phosphate buffered saline (PBS) at pH=1, pH=7.4, and pH=10). The starting concentration for each preparation was 400 μg/mL of drug mimic with attached linker (20 μL of stock solution diluted with 980 μL of hydrolysis PBS). In order to more accurately mimic clinical conditions samples were prepared and stored in a 37° C. oven with slow agitation using a rotating mixer until analyzed using HPLC. The concentration of the target complex was determined in duplicates at multiple time points (t=0, 8, 24, 48, 72, 144, 216 hours) using the HPLC conditions below and quantitation using a standard curve. A 2 mg/mL stock solution of the target complex was prepared by weighing out approximately 20 mg of target complex and diluting with 10 mL of H2O. The following concentrations from the stock solution were prepared by performing serial dilutions in H2O:
Quantitation using a standard curve was used to determine the amount of drug mimic released (μg) at each time point and duplicate sample preparations at each time point were averaged. […] The detection limit of the method was 1 μg/mL. The standard curve for 3-phenylpropanol was also linear over the range of 1 μg/mL to 100 μg/mL with a detection limit of the method at 1 μg/mL.
Using the HPLC release data calculated for the free Bn and 3PP, shown below, kinetic curves were plotted (concentration vs time) for each compound using PSI Plot. The concentration was fit to a first order kinetic equation, where CT=CF−Cce^−kt (CT is the concentration at each time point (μg), CF is the final concentration (μg), Cc is the change in concentration (μg), and k is the rate constant (hr^−1). If the reaction rate didn't display first order kinetics (ie: there was a systematic deviation between the experimental points and the calculated rate constant) other kinetic models were examined. Typically data was collected until at least 90% of the expected product was released. A sample kinetic curve is shown in FIG. 15B.
The HPLC method was able to determine the identity of each compound and the component linker and drug mimic by the retention time as shown in the Table below. • Analytical Column: Alltima HP Rocket C18 3μ 53 mm×7 mm • Mobile Phase: A: 0.1% Trifluoroacetic acid(aq) (TFA), • B: 9:1 Acetonitrile:Water (0.1% TFA) • Gradient: 95% A hold for 1 minute, then ramp to 65% B at 7 minutes, hold for 0.5 minutes • (Equilibration time 5 minutes) • Detector: PDA detector at 440 nm Fluorescence detector excitation wavelength at nm emission wavelength at nm • Injection Volume: 20 μL • Flow Rate: 2.5 mL/min
Using the concentration versus time data, a rate constant was calculated for each compound at various pHs. […] The enhanced rate for the hydrolysis of the Gly/Bn is likely due to the formation of an internal 5 membered ring that would be autocatalytic.

artery = assay: Arterial compression by other photoactivated material; details: FIG. 13
Procedure: Singlet oxygen generating species, such as Rose Bengal, riboflavin, and methylene blue were tested to determine if they would be effective at arterial compression.

Row | Compound | hydrolysis rate constant k ([2]; pH 1, PBS) [h⁻¹] | hydrolysis rate constant k ([2]; pH 7.4, PBS) [h⁻¹] | hydrolysis rate constant k ([2]; pH 10, PBS) [h⁻¹] | efficacy at arterial compression (artery) | further results
1 | Nc1ccc2c3c(cccc13)C(=O)NC2=O [4-amino-1,8-naphthalimide] |  |  |  |  | flexibility of artery after treatment ([1]; after soak, balloon and light activation): more flexible and softer; Hypo-Echogenic pixels/Hyper-Echogenic pixels ([1]; entire IVUS pullback data, POST (soak plus balloon and 447 nm 1800 mW 60 seconds)): 5.011; Hypo-Echogenic pixels/Hyper-Echogenic pixels ([1]; entire IVUS pullback data, SOAK (2.5 mM, 5 minutes)): 4.699; Hypo-Echogenic pixels/Hyper-Echogenic pixels ([1]; frame 921, POST): 12.556; Hypo-Echogenic pixels/Hyper-Echogenic pixels ([1]; frame 921, SOAK): 7.500; Hypo-Echogenic pixels/Hyper-Echogenic pixels ([1]; frame 2925, POST): 21.050; Hypo-Echogenic pixels/Hyper-Echogenic pixels ([1]; frame 2925, SOAK): 9.043
2 | NCCCC(=O)OCCCc1ccccc1 [GABA/3PP, 3-Phenylpropyl GABA] | 0.034 | 0.010 | 0.124 |  | 
3 | NCCCC(=O)OCc1ccccc1 [GABA/Bn, Benzyl GABA] | 0.026 | 0.011 | 0.226 |  | 
4 | NCC(=O)OCCCc1ccccc1 [Gly/3PP, 3-Phenylpropyl Glycinate] | 0.004 | 0.082 | 0.155 |  | 
5 | NCC(=O)OCc1ccccc1 [Gly/Bn, Benzyl Glycinate] | 0.002 | 0.311 | 0.156 |  | 
6 | O=C([O-])c1c(Cl)c(Cl)c(Cl)c(Cl)c1-c1c2cc(I)c(=O)c(I)c-2oc2c(I)c([O-])c(I)cc12.[Na+].[Na+] [Rose Bengal] |  |  |  | No efficacy was observed | 
7 | CN(C)c1ccc2nc3ccc(=[N+](C)C)cc-3sc2c1 [methylene blue] |  |  |  | No efficacy was observed | 
8 | Cc1cc2nc3c(=O)[nH]c(=O)nc-3n(C[C@H](O)[C@H](O)[C@H](O)CO)c2cc1C [riboflavin] |  |  |  | No efficacy was observed | 
